This note sets out measurements from PubChem BioAssay (NCI).

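Values below derive from 48-hour exposures of cells grown in 96-well plates, with endpoints linearly interpolated between the two concentrations bracketing the appropriate inhibition level. GI50 marks 50% less growth. TGI is the concentration that stops growth completely.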 Where only a bound is given, the exact number is not on record here.

Among the test systems are MDA-MB-231 breast; TK-10 renal; UACC-257 melanoma; OVCAR-3 ovarian; ACHN renal; UO-31 renal; M14 melanoma; BT-549 breast; SK-MEL-5 melanoma; HOP-92 NSCLC.
What all share (experiment): NCI-60 cell line screen, 48 h

Turning to `COc1cc[nH]c1/C=C1\C(=O)Nc2ccc(F)c(C#C[C@@H](O)[C@@H](N)[C@@H](C)O)c21`, the GI50 in the assay with MDA-MB-231 breast is 0.485 µM; in the assay on TK-10 renal, 0.258 µM; in the assay on UACC-257 melanoma, 0.628 µM; in the assay with OVCAR-3 ovarian it was 0.685 µM; with ACHN renal, 0.323 µM; in the assay with UO-31 renal, 0.745 µM. Besides, the GI50 in the assay on M14 melanoma is 0.413 µM; in the assay on BT-549 breast it was 0.642 µM; in the assay on SK-MEL-5 melanoma it was 0.676 µM; with HOP-92 NSCLC, 0.517 µM. Besides, the TGI in the assay on MDA-MB-231 breast was found to be 2.37 µM; with TK-10 renal, 1.86 µM; in the assay with UACC-257 melanoma, 2.17 µM; with OVCAR-3 ovarian, 2.26 µM; in the assay with ACHN renal, 2.94 µM; in the assay with UO-31 renal, 2.7 µM. Also, the TGI is 1.24 µM in the assay with M14 melanoma, 1.65 µM in the assay with BT-549 breast, 2.35 µM in the assay with SK-MEL-5 melanoma and 1.96 µM with HOP-92 NSCLC.

Turning to `O=C1C=C[C@]2(C[C@@H](c3cccc(C(F)(F)F)c3)O[C@@H](c3cccc(C(F)(F)F)c3)O2)O1`, the GI50 in the assay on MDA-MB-231 breast is 2.15 µM; in the assay with TK-10 renal, 1.66 µM; with UACC-257 melanoma, 2.29 µM; with OVCAR-3 ovarian it was 1.6 µM; with ACHN renal, 1.55 µM; with UO-31 renal, 1.84 µM. Further, the GI50 was 4.11 µM with M14 melanoma, 1.92 µM in the assay with BT-549 breast, 1.8 µM in the assay on SK-MEL-5 melanoma and 1.97 µM in the assay with HOP-92 NSCLC. The TGI in the assay with MDA-MB-231 breast was 6.29 µM; in the assay with TK-10 renal, 3.22 µM; in the assay on UACC-257 melanoma it was 5.77 µM; in the assay with OVCAR-3 ovarian, 3.71 µM; with ACHN renal it was 3.1 µM; in the assay with UO-31 renal it was 5.08 µM. Further, the TGI with M14 melanoma turned out to be 23.7 µM; in the assay with BT-549 breast, 4.82 µM; with SK-MEL-5 melanoma, 3.72 µM; with HOP-92 NSCLC, 6.6 µM.

`CCCCCCCCCCCCc1ccc(C(=O)/C=C/C(=O)O)cc1`: the GI50 in the assay with MDA-MB-231 breast is 1.85 µM; in the assay on TK-10 renal, 1.82 µM; in the assay with UACC-257 melanoma, 3.79 µM; in the assay on OVCAR-3 ovarian it was 1.91 µM; in the assay on ACHN renal it was 1.73 µM; with UO-31 renal it was 1.63 µM. Besides, the GI50 was 1.79 µM in the assay with M14 melanoma, 1.91 µM in the assay with BT-549 breast, 14.5 µM in the assay on SK-MEL-5 melanoma and 1.95 µM in the assay with HOP-92 NSCLC. The TGI in the assay with MDA-MB-231 breast was determined as 4.5 µM; with TK-10 renal, 3.64 µM; with UACC-257 melanoma, 15.2 µM; in the assay on OVCAR-3 ovarian it was 3.47 µM; with ACHN renal, 3.15 µM; in the assay on UO-31 renal it was 3.01 µM. Also, the TGI in the assay on M14 melanoma came to 4.17 µM; in the assay on BT-549 breast, 5.33 µM; in the assay with SK-MEL-5 melanoma it was 28.7 µM; in the assay on HOP-92 NSCLC it was 5.78 µM.

In the case of `COc1ccc(-c2cc(-c3ccc(Nc4nc(Nc5ccc(Cl)cc5)nc(Nc5ccc(Cl)cc5)n4)cc3)nc(N)c2C#N)cc1`, the GI50 with MDA-MB-231 breast is 1.54 µM; in the assay with TK-10 renal, 2.08 µM; in the assay on UACC-257 melanoma it was 1.79 µM; in the assay with OVCAR-3 ovarian, 1.68 µM; with ACHN renal, 0.803 µM; with UO-31 renal, 1.57 µM. Besides, the GI50 with M14 melanoma was 1.97 µM; in the assay with BT-549 breast it was 3.06 µM; in the assay on SK-MEL-5 melanoma, 1.78 µM; in the assay on HOP-92 NSCLC, 1.31 µM. The TGI in the assay on MDA-MB-231 breast was 3.23 µM; with TK-10 renal, 3.77 µM; in the assay on UACC-257 melanoma, 3.63 µM; in the assay on OVCAR-3 ovarian, 3.18 µM; in the assay with ACHN renal it was 2.18 µM; in the assay with UO-31 renal, 3.26 µM. Also, the TGI with M14 melanoma came to 4.36 µM; in the assay on BT-549 breast it was 9.11 µM; in the assay with SK-MEL-5 melanoma it was 3.65 µM; in the assay on HOP-92 NSCLC it was 3.14 µM.

`C1=CN2C[n+]3cccc(OCc4ccccc4)c3N=C2C(OCc2ccccc2)=C1`: the TGI was 56.1 µM in the assay with MDA-MB-231 breast; greater than 100 µM in the assay with TK-10 renal; 27.5 µM in the assay with UACC-257 melanoma; 25 µM in the assay on OVCAR-3 ovarian; greater than 100 µM with ACHN renal; greater than 100 µM in the assay on UO-31 renal. Further, the TGI is 56.4 µM in the assay with M14 melanoma, 3.25 µM in the assay on BT-549 breast, 21.2 µM in the assay with SK-MEL-5 melanoma and 81.4 µM in the assay with HOP-92 NSCLC.

Turning to `COc1ccc(/C(=C/c2cc(OC)c(OC)c(OC)c2)[N+](=O)[O-])cc1`, the GI50 in the assay on MDA-MB-231 breast is 1.47 µM; with TK-10 renal, 1.88 µM; in the assay with UACC-257 melanoma it was 1.67 µM; in the assay on OVCAR-3 ovarian, 1.66 µM; with ACHN renal, 1.54 µM; with UO-31 renal, 1.3 µM. Also, the GI50 with M14 melanoma was 1.79 µM; with BT-549 breast it was 1.7 µM; in the assay on SK-MEL-5 melanoma, 1.69 µM; in the assay with HOP-92 NSCLC, 1.44 µM. In addition, the TGI with MDA-MB-231 breast came to 3.28 µM; in the assay on TK-10 renal, 3.59 µM; in the assay with UACC-257 melanoma, 3.48 µM; in the assay on OVCAR-3 ovarian, 3.14 µM; with ACHN renal it was 2.88 µM; with UO-31 renal, 2.62 µM. The TGI in the assay with M14 melanoma came to 3.72 µM; with BT-549 breast, 3.2 µM; in the assay on SK-MEL-5 melanoma, 3.11 µM; in the assay with HOP-92 NSCLC, 3.09 µM.

For the compound `COC(=O)c1cnc(=O)n(C2CC(O)C(CO)O2)c1` (centres undefined), the GI50 with MDA-MB-231 breast, with TK-10 renal, with UACC-257 melanoma, in the assay on OVCAR-3 ovarian, with ACHN renal and with UO-31 renal was greater than 100 µM each time. Also, the GI50 in the assay on M14 melanoma, in the assay with BT-549 breast and in the assay with SK-MEL-5 melanoma was greater than 100 µM throughout. Further, the TGI in the assay with MDA-MB-231 breast, in the assay on TK-10 renal, in the assay with UACC-257 melanoma, in the assay on OVCAR-3 ovarian, in the assay on ACHN renal and with UO-31 renal was greater than 100 µM in each case. Besides, the TGI with M14 melanoma, in the assay with BT-549 breast, in the assay on SK-MEL-5 melanoma and with HOP-92 NSCLC was greater than 100 µM in each case.

As for `CC1(C)CC(=O)C2=C(C1)NC(SSC1=C(C#N)C(c3ccccc3)C3=C(CC(C)(C)CC3=O)N1)=C(C#N)C2c1ccccc1` (centres undefined), the GI50 with MDA-MB-231 breast is 23.4 mg/L; with TK-10 renal, 26.9 mg/L; in the assay on UACC-257 melanoma it was 25.4 mg/L; in the assay with OVCAR-3 ovarian, 26.3 mg/L; with ACHN renal it was 26.1 mg/L; in the assay with UO-31 renal, 21 mg/L. Further, the GI50 with M14 melanoma was 22.5 mg/L; in the assay with BT-549 breast it was 27.6 mg/L; with SK-MEL-5 melanoma, 27.8 mg/L; in the assay on HOP-92 NSCLC, 29 mg/L. The TGI in the assay with MDA-MB-231 breast came to 45.1 mg/L; with TK-10 renal, 48.1 mg/L; in the assay with UACC-257 melanoma it was 46 mg/L; with OVCAR-3 ovarian, 47.8 mg/L; with ACHN renal, 46.8 mg/L; in the assay with UO-31 renal, 40.5 mg/L. Besides, the TGI is 43.6 mg/L in the assay with M14 melanoma, 48.6 mg/L in the assay with BT-549 breast, 48.7 mg/L in the assay with SK-MEL-5 melanoma and 51 mg/L in the assay on HOP-92 NSCLC.
